What all share (assay type): biochemical
Assay [1] deals with PDE1C (Homo sapiens, UniProt Q14123). Description: PDE1 inhibition assay (SPA), PDE1C. The note with it: for IC50: concentration required to reach 50% inhibition of the enzyme, 15 nM tritium labelled cAMP, read-out: PDE1C inhibition (nM or %): IC50. The protocol:
(§1) PDE1 Inhibition Assay PDE1A, PDE1B and PDE1C assays were performed as follows: the assays were performed in 60 μL samples containing a fixed amount of the PDE1 enzym1 (sufficient to convert 20-25% of the cyclic nucleotide substrate), a buffer (50 mM HEPES pH 7.6; 10 mM MgCl2; 0.02% Tween20), 0.1 mg/ml BSA, 15 nM tritium labelled cAMP and varying amounts of inhibitors. Reactions were initiated by addition of the cyclic nucleotide substrate, and reactions were allowed to proceed for 1 h at room temperature before being terminated through mixing with 20 μL (0.2 mg) yttrium silicate SPA beads (PerkinElmer). The beads were allowed to settle for 1 h in the dark before the plates were counted in a Wallac 1450 Microbeta counter. The measured signals were converted to activity relative to an uninhibited control (100%) and IC50 values were calculated using XIFit (model 205, IDBS).

Assay [2] concerns the target PDE1B (Homo sapiens, UniProt Q01064). Description: PDE1 inhibition assay (SPA), PDE1B. The note with it: for IC50: concentration required to reach 50% inhibition of the enzyme, 15 nM tritium labelled cAMP, read-out: PDE1B inhibition (nM or %): IC50. The protocol:
as §1

Assay [3] deals with PDE1A (Homo sapiens, UniProt P54750). Description: PDE1 inhibition assay (SPA), PDE1A. To be noted: for IC50: concentration required to reach 50% inhibition of the enzyme, 15 nM tritium labelled cAMP, read-out: PDE1A inhibition (nM or %): IC50. As for the experimental part: as §1
PDE1A, sequence (P54750 whole entry): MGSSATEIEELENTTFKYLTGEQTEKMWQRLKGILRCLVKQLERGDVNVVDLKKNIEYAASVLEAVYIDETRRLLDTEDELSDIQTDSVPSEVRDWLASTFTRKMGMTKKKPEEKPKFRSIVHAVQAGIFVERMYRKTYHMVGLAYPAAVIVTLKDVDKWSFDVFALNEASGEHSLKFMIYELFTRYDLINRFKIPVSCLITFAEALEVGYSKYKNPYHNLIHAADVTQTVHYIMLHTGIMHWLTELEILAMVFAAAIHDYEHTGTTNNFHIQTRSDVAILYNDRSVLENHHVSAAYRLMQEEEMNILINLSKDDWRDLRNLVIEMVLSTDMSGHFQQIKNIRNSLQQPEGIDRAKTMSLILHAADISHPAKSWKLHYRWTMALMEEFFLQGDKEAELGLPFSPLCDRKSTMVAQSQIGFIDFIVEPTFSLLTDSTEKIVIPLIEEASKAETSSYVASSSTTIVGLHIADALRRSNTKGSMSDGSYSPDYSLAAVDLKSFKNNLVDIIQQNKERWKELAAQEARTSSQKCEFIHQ

PDE1C, sequence (Q14123 whole entry): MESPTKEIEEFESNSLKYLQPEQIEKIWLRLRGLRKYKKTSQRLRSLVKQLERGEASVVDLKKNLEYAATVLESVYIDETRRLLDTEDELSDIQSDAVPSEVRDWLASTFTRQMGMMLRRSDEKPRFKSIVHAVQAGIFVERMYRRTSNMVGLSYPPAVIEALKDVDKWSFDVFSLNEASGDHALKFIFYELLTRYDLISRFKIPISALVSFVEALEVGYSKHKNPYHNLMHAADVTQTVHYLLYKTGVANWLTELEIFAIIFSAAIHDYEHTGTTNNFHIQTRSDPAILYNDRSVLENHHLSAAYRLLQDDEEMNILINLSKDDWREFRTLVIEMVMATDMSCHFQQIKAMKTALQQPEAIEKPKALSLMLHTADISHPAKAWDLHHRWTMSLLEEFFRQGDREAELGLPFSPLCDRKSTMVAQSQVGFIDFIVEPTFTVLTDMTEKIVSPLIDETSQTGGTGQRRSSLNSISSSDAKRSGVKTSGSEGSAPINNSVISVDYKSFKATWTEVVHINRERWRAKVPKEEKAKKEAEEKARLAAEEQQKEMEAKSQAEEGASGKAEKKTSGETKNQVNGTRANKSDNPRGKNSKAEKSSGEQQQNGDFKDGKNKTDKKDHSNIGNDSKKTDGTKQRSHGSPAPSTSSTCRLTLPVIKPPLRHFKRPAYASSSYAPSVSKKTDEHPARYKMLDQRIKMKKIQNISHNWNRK
PDE1B, sequence (Q01064 whole entry): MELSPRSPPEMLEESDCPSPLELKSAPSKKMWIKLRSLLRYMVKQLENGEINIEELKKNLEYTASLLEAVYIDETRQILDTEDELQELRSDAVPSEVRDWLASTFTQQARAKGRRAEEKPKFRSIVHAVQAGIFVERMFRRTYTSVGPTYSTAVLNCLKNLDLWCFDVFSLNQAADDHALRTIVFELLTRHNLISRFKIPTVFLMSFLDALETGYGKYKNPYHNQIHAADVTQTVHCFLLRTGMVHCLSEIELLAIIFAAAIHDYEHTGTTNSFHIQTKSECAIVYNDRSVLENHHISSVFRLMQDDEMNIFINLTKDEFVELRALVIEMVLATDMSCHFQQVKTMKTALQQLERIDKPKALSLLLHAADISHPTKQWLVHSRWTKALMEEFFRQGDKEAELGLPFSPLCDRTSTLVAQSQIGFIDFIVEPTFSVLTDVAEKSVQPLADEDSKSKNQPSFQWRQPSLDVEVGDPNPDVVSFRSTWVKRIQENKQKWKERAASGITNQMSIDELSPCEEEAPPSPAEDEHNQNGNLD

For `Cc1ccccc1Cc1cn2c(C3CCOCC3)nnc2c(=O)n1Cc1cccc(F)c1` [7-(3-fluorobenzyl)-6-(2-methylbenzyl)-3-(tetrahydro-2H-pyran-4-yl)-[1,2,4]triazolo[4,3-a]pyrazin-8(7H)-one], the concentration for half-maximal inhibition (IC50) stood at 17 nM in assay [1], 82 nM in assay [2] and 91 nM in assay [3].

In the case of `Cc1cccc(Cc2cn3c(C4CCOCC4)nnc3c(=O)n2Cc2cccc(F)c2)c1` [7-(3-fluorobenzyl)-6-(3-methylbenzyl)-3-(tetrahydro-2H-pyran-4-yl)-[1,2,4]triazolo[4,3-a]pyrazin-8(7H)-one], the concentration for half-maximal inhibition (IC50) is 2 nM in assay [1], 9 nM in assay [2] and 6 nM in assay [3].

As for `O=c1c2nnc(C3CCOCC3)n2cc(Cc2ccc(F)cc2)n1Cc1cccc(F)c1` [7-(3-fluorobenzyl)-6-(4-fluorobenzyl)-3-(tetrahydro-2H-pyran-4-yl)-[1,2,4]triazolo[4,3-a]pyrazin-8(7H)-one], the half-maximal inhibitory concentration (IC50) stood at 10 nM in assay [1], 43 nM in assay [2] and 46 nM in assay [3].

With `Cc1ccc(Cc2cn3c(C4CCOCC4)nnc3c(=O)n2Cc2cccc(F)c2)cc1` [7-(3-fluorobenzyl)-6-(4-methylbenzyl)-3-(tetrahydro-2H-pyran-4-yl)-[1,2,4]triazolo[4,3-a]pyrazin-8(7H)-one], the half-maximal inhibitory concentration (IC50) in assay [1] was 1 nM; in assay [2], 6 nM; in assay [3] it was 7 nM.

As for `CCCc1nnc2c(=O)n(Cc3cccc(F)c3)c(C)cn12` [7-(3-fluorobenzyl)-6-methyl-3-propyl-[1,2,4]triazolo[4,3-a]pyrazin-8(7H)-one], the half-maximal inhibitory concentration (IC50) is 46 nM in assay [1], 190 nM in assay [2] and 236 nM in assay [3].

Regarding `O=c1c2nnc(C3CCOC3)n2ccn1Cc1ccc(Cl)cc1` (stereo not drawn) [7-(4-Chlorobenzyl)-3-(tetrahydrofuran-3-yl)-[1,2,4]triazolo[4,3-a]pyrazin-8(7H)-one], the concentration for half-maximal inhibition (IC50) in assay [1] amounted to 750 nM; in assay [2], 840 nM; in assay [3], 500 nM.

For the compound `CCc1nnc2c(=O)n(Cc3ccc(Cl)cc3)ccn12` [7-(4-Chlorobenzyl)-3-ethyl-[1,2,4]triazolo[4,3-a]pyrazin-8(7H)-one], the figures for the IC50 in assay [1], in assay [2] and in assay [3] were 2400 nM, 800 nM and 1000 nM, respectively.

In the case of `CCCc1nnc2c(=O)n(Cc3ccc(Cl)cc3)ccn12` [7-(4-Chlorobenzyl)-3-propyl-[1,2,4]triazolo[4,3-a]pyrazin-8(7H)-one], the results for the IC50 in assay [1], in assay [2] and in assay [3] were 170 nM, 83 nM and 620 nM, respectively.

Regarding `CCCc1nnc2c(=O)n(Cc3ccc(F)cc3)ccn12` [7-(4-Fluorobenzyl)-3-propyl-[1,2,4]triazolo[4,3-a]pyrazin-8(7H)-one], the IC50 came to 360 nM in assay [1], 1200 nM in assay [2] and 970 nM in assay [3].

As for `CCCc1nnc2c(=O)n(Cc3ccc(C)cc3)ccn12` [7-(4-Methylbenzyl)-3-propyl-[1,2,4]triazolo[4,3-a]pyrazin-8(7H)-one], the results for the half-maximal inhibitory concentration (IC50) in assay [1], in assay [2] and in assay [3] were 780 nM, 930 nM and 1000 nM, respectively.

Consider `COc1ccc(Cn2c(C)cn3c(C4CCOCC4)nnc3c2=O)cc1` [7-(4-methoxybenzyl)-6-methyl-3-(tetrahydro-2H-pyran-4-yl)-[1,2,4]triazolo[4,3-a]pyrazin-8(7H)-one], for which the values for the 50% inhibitory concentration (IC50) in assay [1], in assay [2] and in assay [3] were 37 nM, 34 nM and 54 nM, respectively.

For the compound `CCCc1nnc2c(=O)n(Cc3ccc(OC)cc3)c(C)cn12` [7-(4-methoxybenzyl)-6-methyl-3-propyl-[1,2,4]triazolo[4,3-a]pyrazin-8(7H)-one], the results for the IC50 in assay [1], in assay [2] and in assay [3] were 44 nM, 32 nM and 66 nM, respectively.

As to `CCCc1nnc2c(=O)n(CC3(C)CCCCC3)ccn12` [7-((1-methylcyclohexyl)methyl)-3-propyl-[1,2,4]triazolo[4,3-a]pyrazin-8(7H)-one], the 50% inhibitory concentration (IC50) in assay [1] was 260 nM; in assay [2] it was 950 nM; in assay [3], 1300 nM.

Regarding `CCCc1nnc2c(=O)n(CC3CCC(F)(F)CC3)ccn12` [7-((4,4-difluorocyclohexyl)methyl)-3-propyl-[1,2,4]triazolo[4,3-a]pyrazin-8(7H)-one], the concentration for half-maximal inhibition (IC50) came to 760 nM in assay [1], 420 nM in assay [2] and 450 nM in assay [3].

For the compound `CCCc1nnc2c(=O)n(CC3CCC(C)(C)CC3)ccn12` [7-((4,4-dimethylcyclohexyl)methyl)-3-propyl-[1,2,4]triazolo[4,3-a]pyrazin-8(7H)-one], the IC50 in assay [1] was found to be 110 nM; in assay [2], 110 nM; in assay [3] it was 130 nM.

Regarding `CCCc1nnc2c(=O)n(CC3C4CC5CC(C4)CC3C5)ccn12` (stereo not drawn) [7-(((1r,3r,5r,7r)-adamantan-2-yl)methyl)-3-propyl-[1,2,4]triazolo[4,3-a]pyrazin-8(7H)-one], the IC50 is 63 nM in assay [1], 210 nM in assay [2] and 179 nM in assay [3].

Regarding `CCCc1nnc2c(=O)n(CC34CC5CC(CC(C5)C3)C4)ccn12` [7-(((3r,5r,7r)-adamantan-1-yl)methyl)-3-propyl-[1,2,4]triazolo[4,3-a]pyrazin-8(7H)-one], the figures for the IC50 in assay [1], in assay [2] and in assay [3] were 63 nM, 210 nM and 180 nM, respectively.

`O=c1c2nnc(C3CCOCC3)n2ccn1CC1CCCCCC1` [7-(Cycloheptylmethyl)-3-(tetrahydro-2H-pyran-4-yl)-[1,2,4]triazolo[4,3-a]pyrazin-8(7H)-one]: the results for the concentration for half-maximal inhibition (IC50) in assay [1], in assay [2] and in assay [3] were 42 nM, 33 nM and 43 nM, respectively.

Regarding `CCCc1nnc2c(=O)n(CC3CCCCCC3)ccn12` [7-(Cycloheptylmethyl)-3-propyl-[1,2,4]triazolo[4,3-a]pyrazin-8(7H)-one], the IC50 in assay [1] came to 33 nM; in assay [2], 28 nM; in assay [3], 54 nM.

As for `O=c1c2nnc(C3CCOCC3)n2ccn1CC1CCCCC1` [7-(Cyclohexylmethyl)-3-(tetrahydro-2H-pyran-4-yl)-[1,2,4]triazolo[4,3-a]pyrazin-8(7H)-one], the IC50 was 87 nM in assay [1], 190 nM in assay [2] and 220 nM in assay [3].

Take `CCCc1nnc2c(=O)n(CC3CCCCC3)ccn12` [7-(Cyclohexylmethyl)-3-propyl-[1,2,4]triazolo[4,3-a]pyrazin-8(7H)-one]: the IC50 in assay [1] was found to be 47 nM; in assay [2] it was 81 nM; in assay [3], 96 nM.

For `O=c1c2nnc(C3CCOCC3)n2ccn1CC1CCCC1` [7-(Cyclopentylmethyl)-3-(tetrahydro-2H-pyran-4-yl)-[1,2,4]triazolo[4,3-a]pyrazin-8(7H)-one], the results for the concentration for half-maximal inhibition (IC50) in assay [1], in assay [2] and in assay [3] were 110 nM, 990 nM and 1100 nM, respectively.

Take `CCCc1nnc2c(=O)n(CC3CCCC3)ccn12` [7-(Cyclopentylmethyl)-3-propyl-[1,2,4]triazolo[4,3-a]pyrazin-8(7H)-one]: the IC50 is 95 nM in assay [1], 820 nM in assay [2] and 840 nM in assay [3].

As for `CCCc1nnc2c(=O)n(CC3CC3)ccn12` [7-(Cyclopropylmethyl)-3-propyl-[1,2,4]triazolo[4,3-a]pyrazin-8(7H)-one], the 50% inhibitory concentration (IC50) was found to be 1300 nM in assay [1], 2000 nM in assay [2] and 3600 nM in assay [3].

On to `CCCc1nnc2c(=O)n(CC3COC3)ccn12` [7-(Oxetan-3-ylmethyl)-3-propyl-[1,2,4]triazolo[4,3-a]pyrazin-8(7H)-one], for which the “PDE1C inhibition (nM or %): % inhib” value in assay [1] (% inhibition of the enzyme at a concentration of 10 micro molar of the compound) stood at 57%. For the same compound, the inhibition at 10 µM was determined as 46% in assay [2] (1 h, % inhibition of the enzyme at a concentration of 10 micro molar of the compound, read-out: PDE1B inhibition (nM or %): % inhib) and 37% in assay [3] (1 h, % inhibition of the enzyme at a concentration of 10 micro molar of the compound, read-out: PDE1A inhibition (nM or %): % inhib).

Take `Cc1ccccc1Cc1cn2c(C3CCOCC3)nnc2c(=O)n1CC1CCCCCC1` [7-(cycloheptylmethyl)-6-(2-methylbenzyl)-3-(tetrahydro-2H-pyran-4-yl)-[1,2,4]triazolo[4,3-a]pyrazin-8(7H)-one]: the IC50 in assay [1] is 14 nM; in assay [2], 39 nM; in assay [3], 25 nM.

Take `O=c1c2nnc(C3CCOCC3)n2cc(Cc2ccc(F)cc2)n1CC1CCCCCC1` [7-(cycloheptylmethyl)-6-(4-fluorobenzyl)-3-(tetrahydro-2H-pyran-4-yl)-[1,2,4]triazolo[4,3-a]pyrazin-8(7H)-one]: the IC50 is 4 nM in assay [1], 9 nM in assay [2] and 3 nM in assay [3].

Turning to `Cc1ccc(Cc2cn3c(C4CCOCC4)nnc3c(=O)n2CC2CCCCCC2)cc1` [7-(cycloheptylmethyl)-6-(4-methylbenzyl)-3-(tetrahydro-2H-pyran-4-yl)-[1,2,4]triazolo[4,3-a]pyrazin-8(7H)-one], the IC50 in assay [1] was determined as 0.37 nM; in assay [2], 1 nM; in assay [3], 0.86 nM.

For the compound `Cc1ccccc1Cc1cn2c(C3CCOCC3)nnc2c(=O)n1CC1CCCCC1` [7-(cyclohexylmethyl)-6-(2-methylbenzyl)-3-(tetrahydro-2H-pyran-4-yl)-[1,2,4]triazolo[4,3-a]pyrazin-8(7H)-one], the half-maximal inhibitory concentration (IC50) in assay [1] came out at 10 nM; in assay [2], 44 nM; in assay [3] it was 41 nM.

Source of the values: patent US10150771B2, “Triazolopyrazinones as PDE1 inhibitors” (H. Lundbeck A/S, priority 2014, dated 2018).
